Drawing on patent publication US11008314B2, “Compounds and methods for modulating interleukin-2-inducible t-cell kinase” (CORVUS PHARMACEUTICALS, INC., priority 2016, dated 2021), this text covers IC50 and TXK/ITK for 30 compounds.

Common to all, as to assay type: biochemical
One assay deals with ITK (Homo sapiens (Human), UniProt Q08881). Description: IC50 against ITK.
The next assay has as its target BTK (Homo sapiens (Human), UniProt Q06187). Description: IC50 against BTK.
The target of the next assay is TXK (Homo sapiens (Human), UniProt P42681). Nature of the assay: IC50 against TXK. As to conditions: for TXK/ITK: ratio of TXK IC50 to ITK IC50.
Chain of TXK (P42681 whole entry, species assumed): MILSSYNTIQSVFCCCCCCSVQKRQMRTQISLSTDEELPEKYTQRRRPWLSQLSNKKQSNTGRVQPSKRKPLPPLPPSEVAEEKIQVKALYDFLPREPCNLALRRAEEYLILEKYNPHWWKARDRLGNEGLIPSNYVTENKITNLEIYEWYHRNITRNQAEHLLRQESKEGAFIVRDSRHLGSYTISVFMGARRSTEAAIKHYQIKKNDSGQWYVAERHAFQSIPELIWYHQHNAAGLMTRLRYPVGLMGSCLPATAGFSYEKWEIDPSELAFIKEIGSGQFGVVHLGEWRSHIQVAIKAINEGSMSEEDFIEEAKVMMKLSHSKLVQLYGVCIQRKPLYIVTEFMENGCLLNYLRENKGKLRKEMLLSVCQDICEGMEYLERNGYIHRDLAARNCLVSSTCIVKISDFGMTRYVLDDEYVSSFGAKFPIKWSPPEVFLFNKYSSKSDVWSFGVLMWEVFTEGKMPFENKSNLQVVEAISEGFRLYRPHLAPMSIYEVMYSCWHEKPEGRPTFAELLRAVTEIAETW
For the next assay, the target named is JAK3 (Homo sapiens (Human), UniProt P52333). Nature of the assay: IC50 against JAK3.
Chain of JAK3 (P52333 whole entry, species assumed): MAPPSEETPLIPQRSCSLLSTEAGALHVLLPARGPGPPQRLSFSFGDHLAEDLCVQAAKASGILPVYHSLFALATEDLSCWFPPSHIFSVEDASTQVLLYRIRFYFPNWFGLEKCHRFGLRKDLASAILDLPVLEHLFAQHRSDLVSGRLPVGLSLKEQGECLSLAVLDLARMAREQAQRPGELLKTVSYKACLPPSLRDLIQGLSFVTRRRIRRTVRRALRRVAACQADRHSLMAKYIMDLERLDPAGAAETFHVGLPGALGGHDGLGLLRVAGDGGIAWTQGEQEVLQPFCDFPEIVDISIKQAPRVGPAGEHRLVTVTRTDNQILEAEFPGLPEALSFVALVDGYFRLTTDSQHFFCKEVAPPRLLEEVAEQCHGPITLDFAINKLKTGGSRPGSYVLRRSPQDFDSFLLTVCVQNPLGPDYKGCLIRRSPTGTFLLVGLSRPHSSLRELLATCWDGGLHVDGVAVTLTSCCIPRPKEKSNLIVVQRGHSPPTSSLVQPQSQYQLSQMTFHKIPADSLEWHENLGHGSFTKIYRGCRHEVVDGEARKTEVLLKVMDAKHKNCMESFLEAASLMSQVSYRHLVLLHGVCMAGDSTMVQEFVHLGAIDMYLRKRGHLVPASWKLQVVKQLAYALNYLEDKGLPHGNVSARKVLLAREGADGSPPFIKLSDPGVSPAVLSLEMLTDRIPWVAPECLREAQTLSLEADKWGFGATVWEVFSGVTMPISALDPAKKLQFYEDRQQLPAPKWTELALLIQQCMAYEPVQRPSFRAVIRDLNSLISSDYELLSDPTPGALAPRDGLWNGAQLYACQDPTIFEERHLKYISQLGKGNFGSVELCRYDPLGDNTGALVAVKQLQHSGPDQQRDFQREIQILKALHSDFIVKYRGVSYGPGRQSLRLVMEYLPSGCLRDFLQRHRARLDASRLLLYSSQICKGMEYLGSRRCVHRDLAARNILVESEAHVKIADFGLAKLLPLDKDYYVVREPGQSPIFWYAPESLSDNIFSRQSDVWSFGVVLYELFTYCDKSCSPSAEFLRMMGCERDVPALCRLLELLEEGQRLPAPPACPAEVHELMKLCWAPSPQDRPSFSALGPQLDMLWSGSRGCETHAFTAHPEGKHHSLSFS

Chain of ITK (Q08881 whole entry): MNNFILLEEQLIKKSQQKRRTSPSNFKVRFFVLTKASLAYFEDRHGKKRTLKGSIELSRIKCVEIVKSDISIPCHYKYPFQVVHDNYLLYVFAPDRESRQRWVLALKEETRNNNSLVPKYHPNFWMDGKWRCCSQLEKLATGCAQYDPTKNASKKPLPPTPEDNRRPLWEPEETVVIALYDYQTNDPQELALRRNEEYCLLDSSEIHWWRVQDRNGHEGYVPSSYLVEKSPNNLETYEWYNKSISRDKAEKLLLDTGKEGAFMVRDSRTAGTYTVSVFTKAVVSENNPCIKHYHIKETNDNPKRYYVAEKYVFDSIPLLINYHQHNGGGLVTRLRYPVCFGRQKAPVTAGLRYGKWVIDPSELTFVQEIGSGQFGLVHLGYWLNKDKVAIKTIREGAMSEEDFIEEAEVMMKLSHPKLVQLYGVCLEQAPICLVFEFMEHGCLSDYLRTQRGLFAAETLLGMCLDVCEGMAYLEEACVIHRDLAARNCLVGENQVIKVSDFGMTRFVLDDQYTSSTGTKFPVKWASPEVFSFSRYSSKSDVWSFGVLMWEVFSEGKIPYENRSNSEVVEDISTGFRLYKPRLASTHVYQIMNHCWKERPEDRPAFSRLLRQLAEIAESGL
Chain of BTK (Q06187 whole entry, species assumed): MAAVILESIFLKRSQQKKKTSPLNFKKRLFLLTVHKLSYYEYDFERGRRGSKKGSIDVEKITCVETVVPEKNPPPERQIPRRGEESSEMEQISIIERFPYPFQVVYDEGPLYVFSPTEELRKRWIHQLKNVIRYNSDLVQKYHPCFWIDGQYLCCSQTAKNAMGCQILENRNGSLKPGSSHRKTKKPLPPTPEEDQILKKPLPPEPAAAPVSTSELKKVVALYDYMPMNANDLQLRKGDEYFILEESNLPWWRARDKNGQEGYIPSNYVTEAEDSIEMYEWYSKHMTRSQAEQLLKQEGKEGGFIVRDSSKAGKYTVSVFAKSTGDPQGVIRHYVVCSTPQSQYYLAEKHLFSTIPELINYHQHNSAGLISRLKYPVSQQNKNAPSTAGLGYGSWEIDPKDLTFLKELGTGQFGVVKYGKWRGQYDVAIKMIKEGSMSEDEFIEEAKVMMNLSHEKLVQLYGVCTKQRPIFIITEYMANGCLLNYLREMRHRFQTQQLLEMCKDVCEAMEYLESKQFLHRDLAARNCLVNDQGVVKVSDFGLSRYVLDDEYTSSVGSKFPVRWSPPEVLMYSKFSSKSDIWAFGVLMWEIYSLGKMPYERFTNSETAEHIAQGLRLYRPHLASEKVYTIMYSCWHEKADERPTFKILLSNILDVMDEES

Regarding `C=CC(=O)N1CCCN(C(=O)c2cc(Sc3cnc(NC(=O)c4cnsc4)s3)c(C)cc2OC)C[C@H]1C` [Compound 93], the half-maximal inhibitory concentration (IC50) (in general, the concentration that inhibits the measured activity by half) on ITK was less than 10 nM; at BTK, 1000 to 10000 nM; at TXK, 100 to 1000 nM; on JAK3, not below 10000 nM. Also, the TXK/ITK at TXK came out at 252.91.

Take `C=CC(=O)N1CCN(C(=O)c2cc(Sc3cnc(NC(=O)c4ccsc4)s3)c(C)cc2C)CC1` [Compound 109]: the IC50 against ITK is less than 10 nM; at BTK, 10 to 100 nM; against TXK, 10 to 100 nM; against JAK3, 10 to 100 nM. In addition, the TXK/ITK at TXK is 13.5.

As for `C=CC(=O)N1CCCN(C(=O)c2cc(Sc3cnc(NC(=O)C4CC4)s3)c(Cl)cc2C)C[C@H]1C` [Compound 62], the IC50 against ITK was less than 10 nM; against BTK it was 1000 to 10000 nM; on TXK it was 1000 to 10000 nM; against JAK3 it was 1000 to 10000 nM. Further, the TXK/ITK on TXK is on record as 320.16.

Consider `C=CC(=O)N1[C@@H]2CC[C@H]1CN(C(=O)c1cc(Sc3cnc(NC(=O)C4CC4)s3)c(C)cc1OC)C2` [Compound 18], for which the IC50 at ITK is less than 10 nM; at BTK, 10 to 100 nM; at TXK it was less than 10 nM; against JAK3 it was 10 to 100 nM. Further, the TXK/ITK at TXK stood at 2.8993.

As to `C=CC(=O)N1CCN(C(=O)c2cc(Sc3cnc(NC(=O)c4ccsc4)s3)c(C)cc2OC)C[C@H]1C#N` [Compound 156, (S)-N-(5-((5-(4-acryloyl-3-cyanopiperazine-1-carbonyl)-4-methoxy-2-methylphenyl)thio)thiazol-2-yl)thiophene-3-carboxamide], the IC50 on ITK, against BTK, on TXK and at JAK3 was less than 10 nM in each case. For the same compound, the TXK/ITK on TXK is 3.09.

On to `C=CC(=O)N1CCN(C(=O)c2cc(Sc3cnc(NC(=O)c4ccc(N5CCN(C(=O)OC(C)(C)C)CC5)cc4)s3)c(C)cc2OC)CC1` [Compound 40], for which the IC50 on ITK was less than 10 nM; against BTK, 100 to 1000 nM; against TXK it was 10 to 100 nM; against JAK3, 100 to 1000 nM. Further, on TXK, the TXK/ITK turned out to be 14.491.

As to `C=CC(=O)N1C[C@H]2CC[C@@H](C1)N2C(=O)c1cc(Sc2cnc(NC(=O)C3CC3)s2)c(C)cc1OC` [Compound 17], the 50% inhibitory concentration (IC50) is less than 10 nM on ITK, less than 10 nM against BTK, less than 10 nM against TXK and 10 to 100 nM against JAK3. Besides, the TXK/ITK on TXK amounted to 5.4235.

In the case of `C=CC(=O)N1CCCN(C(=O)c2cc(Sc3cnc(NC(=O)N(C)C)s3)c(C)cc2OC)C[C@H]1C` [Compound 110], the half-inhibitory concentration (IC50) is 100 to 1000 nM on ITK, not below 10000 nM against BTK, not below 10000 nM at TXK and 1000 to 10000 nM against JAK3. Moreover, the TXK/ITK at TXK worked out at 46.6.

For `C=CC(=O)N1CCCN(C(=O)c2cc(Sc3cnc(NC(=O)C4CC4)s3)c(C)cc2OC)C[C@H]1C(C)C` [Compound 148, (R)-N-(5-((5-(4-acryloyl-3-isopropyl-1,4-diazepane-1-carbonyl)-4-methoxy-2-methylphenyl)thio)thiazol-2-yl)cyclopropanecarboxamide], the IC50 against ITK was less than 10 nM; on BTK, 100 to 1000 nM; against TXK, 100 to 1000 nM; against JAK3, not below 10000 nM. Moreover, the TXK/ITK on TXK is given as 82.31.

Consider `C=CC(=O)N1CCN(C(=O)c2cc(Sc3cnc(Nc4ccccn4)s3)c(C)cc2OC)C[C@H]1C#N` [Compound 153, (S)-1-acryloyl-4-(2-methoxy-4-methyl-5-((2-(pyridin-2-ylamino)thiazol-5-yl)thio)benzoyl)piperazine-2-carbonitrile], for which the IC50 on ITK, against BTK and against JAK3 was less than 10 nM in each case. The TXK/ITK at TXK stood at 0.61.

On to `C=CC(=O)N1CCN(C(=O)c2cc(Sc3cnc(NC(=O)c4cccc(CN(C)C)c4)s3)c(C)cc2C)C[C@H]1CC` [Compound 129], for which the concentration for half-maximal inhibition (IC50) on ITK is less than 10 nM; on BTK, 10 to 100 nM; against TXK it was 10 to 100 nM; against JAK3 it was 100 to 1000 nM. In addition, at TXK, the TXK/ITK came out at 46.0.

Consider `C=CC(=O)N1CCN(C(=O)c2cc(Sc3cnc(NC(C)=O)s3)c(C)cc2OC)[C@H](C)C1` [Compound 10], for which the IC50 on ITK was in the range of 10 to 100 nM; on BTK, 100 to 1000 nM; against TXK, 100 to 1000 nM; at JAK3 it was 1000 to 10000 nM. Further, the TXK/ITK at TXK came to 8.0758.

As for `C=CC(=O)N1CCN(C(=O)c2cc(Sc3cnc(NC(=O)C4CC4)s3)ccc2OC)CC1` [Compound 78], the IC50 at ITK is less than 10 nM; at BTK, 100 to 1000 nM; against TXK it was 10 to 100 nM; on JAK3, 100 to 1000 nM. Besides, the TXK/ITK on TXK is 10.586.

Take `C=CC(=O)N1CCCN(C(=O)c2cc(Cc3cnc(NC(=O)C4CC4)s3)c(C)cc2OC)C[C@H]1C` [Compound 128]: the IC50 at ITK is 10 to 100 nM; against BTK, 100 to 1000 nM; against TXK, 100 to 1000 nM; at JAK3 it was not below 10000 nM. Also, at TXK, the TXK/ITK came to 12.8.

Take `C=CC(=O)N1CCCN(C(=O)c2cc(CSc3cnc(NC(=O)C4CC4)s3)cc(C)c2C)CC1` [Compound 58]: the IC50 is 1000 to 10000 nM against ITK, not below 10000 nM at BTK, 1000 to 10000 nM on TXK and 1000 to 10000 nM at JAK3. The TXK/ITK at TXK was found to be 2.9749.

As for `C=CC(=O)N1CCN(C(=O)c2cc(Sc3cnc(NC(=O)C4CC4)s3)c(C)cc2C)C[C@H]1CC` [Compound 100], the IC50 against ITK is less than 10 nM; at BTK, 1000 to 10000 nM; on TXK it was 10 to 100 nM; against JAK3 it was 100 to 1000 nM. In addition, on TXK, the TXK/ITK is recorded as 8.8107.

On to `C=CC(=O)N1CCN(C(=O)c2cc(Sc3cnc(NC(=O)C4CC4)s3)c(C)cc2C(F)(F)F)C[C@H]1C` [Compound 69], for which the IC50 on ITK was 100 to 1000 nM; at BTK, not below 10000 nM; on TXK it was 100 to 1000 nM; against JAK3 it was 1000 to 10000 nM. Moreover, the TXK/ITK at TXK is given as 4.9369.

With `C=CC(=O)N1CCN(C(=O)c2cc(Sc3cnc(NC(=O)c4cnsc4)s3)c(C)cc2OC)CC1` [Compound 85], the IC50 is less than 10 nM against ITK, 100 to 1000 nM on BTK, 10 to 100 nM at TXK and 100 to 1000 nM at JAK3. The TXK/ITK on TXK is recorded as 33.582.

Take `C=CC(=O)N1CCN(C(=O)c2cc(Sc3cnc(NC(=O)c4ccc(N5CCN(C(=O)CCOCCOCCOCCOCCNC(=O)CCCCC6SCC7NC(=O)NC76)CC5)cc4)s3)c(C)cc2OC)CC1` (stereo not drawn) [Compound 41]: the IC50 against ITK is less than 10 nM; against BTK, 10 to 100 nM; against TXK, 10 to 100 nM; on JAK3, 10 to 100 nM. On TXK, the TXK/ITK is on record as 21.91.

Turning to `C=CC(=O)N1CCN(C(=O)c2cccc(Cc3cnc(NC(=O)C4CC4)s3)c2)CC1` [Compound 4], the IC50 against ITK lay within 10 to 100 nM; at BTK it was 100 to 1000 nM; at TXK, 10 to 100 nM; against JAK3 it was 100 to 1000 nM. For the same compound, at TXK, the TXK/ITK is 0.3296.

`C=CC(=O)N1CCN(C(=O)c2cc(C(C)c3cnc(Nc4ccccn4)s3)c(C)cc2OC)CC1` (stereo not drawn) [Compound 137]: the IC50 is less than 10 nM against ITK, less than 10 nM on BTK, less than 10 nM against TXK and 100 to 1000 nM against JAK3. For the same compound, the TXK/ITK at TXK is 0.93.

Consider `C=CC(=O)N1CCN(C(=O)c2cc(Sc3cnc(NC(=O)C4CC4)s3)c(Cl)cc2C)C[C@H]1C` [Compound 81], for which the IC50 on ITK was less than 10 nM; on BTK it was 1000 to 10000 nM; at TXK it was 100 to 1000 nM; at JAK3 it was 100 to 1000 nM. Also, the TXK/ITK on TXK is listed as 19.042.

Turning to `C=C(C)C(=O)N1CCCN(C(=O)c2cc(Sc3cnc(NC(=O)c4cccc(CN(C)C)c4)s3)c(C)cc2OC)CC1` [Compound 39], the IC50 against ITK was 100 to 1000 nM; against BTK, not below 10000 nM; on TXK it was 1000 to 10000 nM; at JAK3 it was not below 10000 nM. For the same compound, at TXK, the TXK/ITK was found to be 1.5.

As for `C=CC(=O)N1CCN(C(=O)c2cc(Sc3cnc(NC(=O)C4CC4)s3)c(C)cc2CC)C[C@H]1CC` [Compound 104], the IC50 was less than 10 nM on ITK, 100 to 1000 nM on BTK, 10 to 100 nM against TXK and 100 to 1000 nM on JAK3. Also, the TXK/ITK at TXK is 3.6.

Consider `C=CC(=O)N1CCCN(C(=O)c2cc(Sc3cnc(NC(=O)C4CC4)s3)c(C)cc2OC)CCC1` [Compound 53], for which the IC50 on ITK was less than 10 nM; on BTK it was 100 to 1000 nM; on TXK, 100 to 1000 nM; on JAK3, 1000 to 10000 nM.

With `C=C(CN(C)C)C(=O)N1CCCN(C(=O)c2cc(Sc3cnc(NC(=O)C4CC4)s3)c(C)cc2OC)C[C@H]1C` [Compound 88], the IC50 is 100 to 1000 nM on ITK, not below 10000 nM on BTK, not below 10000 nM on TXK and not below 10000 nM on JAK3. Besides, the TXK/ITK at TXK worked out at 30.436.

With `C=CC(=O)N1CCN(C(=O)c2cc(Sc3cnc(NC(=O)C4CC4)s3)c(C)cn2)CC1` [Compound 76], the IC50 against ITK, against BTK, against TXK and on JAK3 was not below 10000 nM each time. Besides, at TXK, the TXK/ITK was 1.

For the compound `C=CC(=O)N1CCN(C(=O)c2cc(Sc3cnc(NC(=O)c4ccn(C)c4)s3)c(C)cc2OC)C[C@H]1CC` [Compound 132], the IC50 is less than 10 nM at ITK, 100 to 1000 nM at BTK, 10 to 100 nM against TXK and 100 to 1000 nM against JAK3.

Take `C=CC(=O)N1CCN(C(=O)c2cc(Sc3cnc(NC(=O)c4ccccn4)s3)c(C)cc2OC)CC1` [Compound 95]: the IC50 against ITK lay in the range of 10 to 100 nM; against BTK it was 100 to 1000 nM; at TXK it was 100 to 1000 nM; at JAK3, 1000 to 10000 nM. For the same compound, the TXK/ITK on TXK turned out to be 14.201.

On to `C=CC(=O)N1CC[C@@H](N(C)C(=O)c2cc(Sc3cnc(NC(=O)C4CC4)s3)c(C)cc2OC)C1` [Compound 27], for which the IC50 against ITK, at BTK, on TXK and against JAK3 was less than 10 nM throughout. The TXK/ITK at TXK was determined as 2.0165.
